Source: patent publication US20210353517A1, “PROCESS FOR PRODUCING A BIO-BASED SURFACTANT” (University College Dublin, priority 2018, published 2021)

What was measured:
Assay type in all cases: physicochemical
[1] = Surface tension analysis (DuNOUY ring tensiometer); settings: at parity of concentration (w/v), 25° C., relative to SDS
Description: Surface tension analysis was performed with an interfacial tensiometer Cenco DuNOUY® 70545 model. In this methodology, a ring-shaped steel tool is pulled up from a surfactant solution and the corresponding millinewton per meter (mN/m) of force applied to break the surface tension is indicated. Increasingly diluted surfactant solutions are measured until the reference value of deionised water is reached (72 mN/m). The measurements were performed at 25° C.

[2] = Critical micelle concentration by conductivity assay; settings: conductivity at 25° C., relative to SDS
Description: Critical micelle concentration was estimated by a conductivity assay. In this assay a pen type EC-963 model conductivity meter tester was submerged into a milliQ® grade deionised water solution to have a zero reading of pS/cm. Increasing amounts of different surfactant solutions was added to this milliQ® water solution and the conductivity was measured at 25° C. The increasing conductivity is proportional to the surfactant activity. The change of slope in the two linear interpolating curves is an indication of the critical micelle concentration (CMC) point for the specific surfactant (Al-Soufi et al 2012).

[3] = Drop shape analysis (wettability, dynamic contact angle); settings: solution at its CMC added to 20 μL deionised water drop
Description: The dynamic behaviour of a 20 μL deionised water drop after the addition of an equal volume of surfactant solution at critical micelle concentration was recorded with a video recording system and analysed by a dedicated plug-in (LB-ADSA) of ImageJ® software for image analysis. The sessile drop is positioned on a smooth and plan surface of a borosilicate glass slide without any microdefects. A contour recognition is initially carried out based on a grey-scale analysis of the image. In the second step, a geometrical model describing the drop shape is fitted to the contour. The contact angle is the angle between the calculated drop shape function and the sample surface.

Foaming stability = settings: 10 s stirring at 1500 rpm, at respective CMC values

Question: Which “surface tension value better than sodium dodecyl sulfate (SDS)” value [1] does the source give for CCCCCCCCCC(CCOS(=O)(=O)O)OS(=O)(=O)O (stereo not drawn) [dodecyl (1,3) disulfate] here?
Answer: 4 fold

Question: What about the “outperformance of SDS at the specific CMC concentration (change of slope point of conductivity)” value [2] of the same molecule?
Answer: 3.5 fold

Question: And the “wettability (speed at which the contact angle of a water drop is broken) versus SDS” value [3]?
Answer: higher that the SDS solution

Question: And the “foam decrease in volume over time” value (Foaming stability)?
Answer: 2 fold

Question: And the “foam decrease slower than SDS” value (Foaming stability)?
Answer: 3 times

Question: What about the “foaming volume higher than SDS” value (Foaming stability) of the same molecule?
Answer: 1.5 fold
